Laboratory results from patent US20040235792A1, “Serine protease inhibitors compromising a hydrogen-bond acceptor” (priority 2001, published 2004).

Legend:
Type in all cases: biochemical
Human α-thrombin = biological target: T1, Human α-thrombin (Homo sapiens, UniProt P00734); assay: Score assay, Thr (chromogenic substrate S-2238); conditions: Score = fold increase in inhibitor concentration / concentration of inhibitor used (in mM), 37° C., pH 7.4
T1 construct: Human α-thrombin was obtained from J. Freysinnet (Strasbourg); purchased J. Freysinnet (Strasbourg)
Source text: (§1) Score gives a facile measure of the effectiveness of an inhibitor requiring only one or two data points, rather than the twelve or more data points required to calculate an IC50.
(§2) The principle behind calculating the score is that, although the absolute values obtained from inhibitors of the same type may be different, the shape and range of the IC50 curves are quite similar.
(§3) Molecular Devices Corp. Thermomax plate reader.
S-2238 (H-D-Phe-Pip-Arg-pNA, for Thr) was obtained from Quadratech.
(§4) Buffer for Thr, Try, Pla, UK or Xa assay: 0.1M sodium phosphate; 0.2M sodium chloride; 0.5% PEG6000; 0.02% sodium azide, pH 7.4.
(§5) Buffer for FIXa assay: 50 mM Tris; 100 mM sodium chloride; 0.5% PEG 6000, pH 7.4. The aqueous buffer was freshly mixed each day with ethylene glycol (65%:35% respectively) Human α-thrombin was obtained from J. Freysinnet (Strasbourg).
Inhibitor (100 μl of dilution in buffer of 1/20 or higher as appropriate from stock in DMSO) is added to substrate (50 μl of a dilution of 1/100 of 2.4 mg/ml stock) for 2 minutes at 37° C. Thr (50 μl of a dilution of {fraction (1/10,000)} of stock at 1 mg/ml) is added.
(§6) The data from IC50 curves for 13 compounds were used to construct an average IC50 curve.
(§7) The average values for the fold increase at each 10% step are shown below:
(§8) Measurement of single concentrations of inhibitor on a plate reader (using MDC ‘Softmax’ software) gave a value from 9 to 0 when compared to a control without inhibitor which corresponds to the % inhibition a shown in Table 1. Provided that the plate reader number was >2 but <8 (linear part of the graph) the score could then be calculated as follows.
(§9) Score=fold increase in inhibitor concentration (see table 1)/concentration of inhibitor used (in mM)

FIXa = biological target: T2, FIXa (Homo sapiens, UniProt P00740); assay: Score assay, FIXa (chromogenic substrate Pefachrome IXa); parameters: key: fold increase in inhibitor conc / inhibitor conc used (mM); conditions: Score = fold increase in inhibitor concentration / concentration of inhibitor used (in mM), 37° C., pH 7.4
T2 construct: FIXa was obtained from Haematologics; purchased Haematologics
Experimental: as §1, §2, §3
Pefachrome IXa (Kordia, for FIXa)
as §5
FIXa was obtained from Haematologics.
FIXa (50 μl of a stock at 0.01 mg/ml) is added.
as §6, §7, §8, §9

Xa (factor X activated) = Xa (factor X activated) (Homo sapiens, UniProt P00742); assay: Score assay, Xa (chromogenic substrate S-2765); parameters: key: score = fold increase in inhibitor conc / inhibitor conc used (mM); conditions: Table 3, substrate 22 μM
Source text: as §1, §2, §3
S-2765 (N-α-Z-D-ArgGly-Arg-pNa for Xa) was obtained from Quadratech.
as §4
(§10) Final Substrates Concentrations were 25 μM, 113 μM, 22 μM and 125 μM for Try, Pla, Xa and UK Respectively.
as §6, §7, §8, §9

Try (trypsin) = Try (trypsin) (Homo sapiens, UniProt P07477); assay: Score assay, Try (chromogenic substrate S-2288); parameters: key: score = fold increase in inhibitor conc / inhibitor conc used (mM); conditions: Table 3, substrate 25 μM
Source text: as §1, §2, §3
S-2288 (H-D-Ileu-Pro-Arg-pNa for Try) was obtained from Quadratech.
as §4, §10, §6, §7, §8, §9

Pla (plasmin) = Pla (plasmin) (Homo sapiens, UniProt P00747); assay: Score assay, Pla (chromogenic substrate S-2251); conditions: Table 3, substrate 113 μM
Source text: as §1, §2, §3
S-2251 (H-D-Val-Leu-Lys-pNa for Pla) was obtained from Quadratech.
as §4, §10, §6, §7, §8, §9

UK (urokinase) = UK (urokinase) (Homo sapiens, UniProt P00749); assay: Score assay, UK (chromogenic substrate S-2444); parameters: key: score = fold increase in inhibitor conc / inhibitor conc used (mM); conditions: Table 3, substrate 125 μM
Source text: as §1, §2, §3
S-2444 (pyro-Glu-Gly-Arg-pNa for UK) was obtained from Quadratech.
as §4, §10, §6, §7, §8, §9

[1] = Table 1 comparators, single concentration
[2] = Table 1 comparators, single concentration, higher = more effective

Chain of Pla (plasmin) (P00747 581-810 limits assumed, species assumed): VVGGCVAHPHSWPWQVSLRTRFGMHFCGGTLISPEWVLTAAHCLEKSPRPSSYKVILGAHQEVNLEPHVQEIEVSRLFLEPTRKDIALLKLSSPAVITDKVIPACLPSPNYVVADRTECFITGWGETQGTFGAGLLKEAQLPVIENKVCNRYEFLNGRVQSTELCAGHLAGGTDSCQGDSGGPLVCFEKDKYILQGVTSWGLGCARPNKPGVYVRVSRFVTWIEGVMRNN
Chain of Pla (plasmin) (P00747 97-580 partner limits assumed, species assumed): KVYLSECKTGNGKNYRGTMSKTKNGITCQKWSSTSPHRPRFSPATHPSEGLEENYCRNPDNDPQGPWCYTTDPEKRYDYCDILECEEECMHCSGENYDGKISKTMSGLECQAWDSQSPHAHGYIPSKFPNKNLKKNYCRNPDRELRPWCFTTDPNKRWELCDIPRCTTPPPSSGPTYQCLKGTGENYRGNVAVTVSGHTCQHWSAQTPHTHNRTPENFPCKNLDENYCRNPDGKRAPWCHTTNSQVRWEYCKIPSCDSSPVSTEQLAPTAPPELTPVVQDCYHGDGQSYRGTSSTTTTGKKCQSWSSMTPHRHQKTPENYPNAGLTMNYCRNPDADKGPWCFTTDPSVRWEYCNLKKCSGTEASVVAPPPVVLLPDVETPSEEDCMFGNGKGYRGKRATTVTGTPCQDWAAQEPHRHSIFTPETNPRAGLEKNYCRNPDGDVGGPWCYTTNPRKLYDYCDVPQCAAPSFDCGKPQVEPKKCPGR
Chain of Xa (factor X activated) (P00742 235-488 limits assumed): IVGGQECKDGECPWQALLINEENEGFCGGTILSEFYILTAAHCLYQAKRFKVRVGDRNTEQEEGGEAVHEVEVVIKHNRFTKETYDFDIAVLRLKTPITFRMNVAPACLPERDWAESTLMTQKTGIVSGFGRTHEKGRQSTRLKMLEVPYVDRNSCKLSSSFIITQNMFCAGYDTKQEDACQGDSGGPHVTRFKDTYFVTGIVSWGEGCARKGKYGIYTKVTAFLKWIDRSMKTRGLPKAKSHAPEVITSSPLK
Chain of Xa (factor X activated) (P00742 41-179 partner limits assumed): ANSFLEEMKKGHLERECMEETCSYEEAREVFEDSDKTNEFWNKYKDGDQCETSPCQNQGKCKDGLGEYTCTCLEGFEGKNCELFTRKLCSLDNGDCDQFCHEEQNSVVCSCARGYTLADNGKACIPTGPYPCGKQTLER
T2 sequence (P00740 227-461 limits assumed): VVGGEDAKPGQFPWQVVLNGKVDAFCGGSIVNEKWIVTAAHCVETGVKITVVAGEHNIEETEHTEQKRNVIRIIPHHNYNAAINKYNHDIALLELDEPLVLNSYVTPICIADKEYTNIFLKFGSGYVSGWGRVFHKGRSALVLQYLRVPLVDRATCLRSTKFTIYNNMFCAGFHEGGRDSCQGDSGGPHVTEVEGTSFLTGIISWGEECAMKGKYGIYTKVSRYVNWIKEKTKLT
T2 sequence (P00740 47-191 partner limits assumed): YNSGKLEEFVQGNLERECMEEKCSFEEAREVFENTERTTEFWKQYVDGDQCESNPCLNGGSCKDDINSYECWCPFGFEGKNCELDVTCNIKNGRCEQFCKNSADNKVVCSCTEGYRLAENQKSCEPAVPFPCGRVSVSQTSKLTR

| SMILES | Thr Score (Human α-thrombin; Table 3) | FIXa score (FIXa; Table 3) | Xa (score) (Xa (factor X activated)) | Try (score) (Try (trypsin)) | Pla (score) (Pla (plasmin)) | UK (score) (UK (urokinase)) | Thr Score (Human α-thrombin; [1]) | FIXa score (FIXa; [2]) |
| --- | --- | --- | --- | --- | --- | --- | --- | --- |
| CC1(C)OB(c2ccc(Oc3ccc(Oc4ccccc4)cc3)c(CSC(=N)N)c2)OC1(C)C [compound 1056] | 455 | 626 |  |  |  |  |  |  |
| N=C(N)SCc1cccc(B(O)O)c1 [compound 864] | 421 | 209 | 868 | 868 | 289 | 776 |  |  |
| CN=C(N)SCc1cccc(B(O)O)c1 [compound 903] | 38.7 | 19 | 39 | 21 | 21 | 27 |  |  |
| Br.N=C(N)NC(=N)Nc1cc(F)cc(F)c1Br [compound 929] |  |  |  |  |  |  | 0 | 1.6 |
| Br.COC(=O)c1cccc(CSC(=N)N)c1 [compound 887] |  |  |  |  |  |  | 5.3 | 0.9 |
| CC(SC(=N)N)c1cccc(B2OC(C)(C)C(C)(C)O2)c1 (centres unmarked) [compound 974] | 6769 | 64 | 680 | 324 | 324 | 934 |  |  |
| Cc1cc(CSC(=N)N)cc(B(O)O)c1 [compound 967] | 1645 | 205 | 905 | 3 | 312 | 785 |  |  |
| CC1(C)OB(c2ccc(Oc3ccccc3)c(CSC(=N)N)c2)OC1(C)C [compound 1055] | 2768 | 291 |  |  |  |  |  |  |
| N=C(N)SCc1cc(B(O)O)ccc1Oc1ccccc1 [compound 977] | 333 | 306 | 889 | 583 | 583 | 583 |  |  |
| CC(=O)NNC(=N)SCc1cccc(B(O)O)c1 [compound 915] | 2.0 | 10.1 | 1 | 2 | 1 | 4 |  |  |
| CC1(C)OB(c2cccc(CSC(=N)N)c2)OC1(C)C [compound 852] | 326 | 76 | 624 | 624 | 393 | 792 |  |  |
| Br.N=C(N)SCc1cccc(I)c1 [compound 885] |  |  |  |  |  |  | 10 | 0.6 |
| CC1(C)OB(c2cccc(CNC(=N)N)c2)OC1(C)C [compound 1006] | 106 | 46 | 51 | 37 | 27 | 70 |  |  |
| Br.Cc1ccc(I)cc1NC(=N)NC(=N)N [compound 930] |  |  |  |  |  |  | 0 | 0.6 |
| N=C(N)SCc1cc(B(O)O)ccc1Oc1ccc2c(c1)CCCC2 [compound 1070] | 2174 | 346 |  |  |  |  |  |  |
| N=C(N)SCc1cc(CSC(=N)N)cc(B(O)O)c1 [compound 968] | 1215 | 59.6 | 1862 | 640 | 640 | 880 |  |  |
| N=C(N)SCc1cc(B(O)O)ccc1Oc1ccc(C(=O)c2ccccc2)cc1 [compound 1072] | 1410 | 746 |  |  |  |  |  |  |
| N=C(N)SCc1ccc(B(O)O)cc1 [compound 866] | 6.4 | 6.4 | 6 | 440 | 32 | 3076 |  |  |
| N=C(N)SCc1ccccc1B(O)O [compound 865] | 70 | 5.4 | 7 | 7 | 3 | 26 |  |  |
| CC1(C)OB(c2ccc(Oc3cccc(Cl)c3)c(CSC(=N)N)c2)OC1(C)C [compound 1057] | 572 | 157 |  |  |  |  |  |  |
| CC1(C)OB(c2ccc(N3CCN(c4ccccn4)CC3)c(CSC(=N)N)c2)OC1(C)C [compound 1031] | 15(*) | 39.0 |  |  |  |  |  |  |
| CC(C)(C)OC(=O)N=C(N)N(Cc1cccc(B2OC(C)(C)C(C)(C)O2)c1)C(=O)OC(C)(C)C [compound 970] | 12 | 80 |  |  |  |  |  |  |
| N#Cc1cccc(Oc2ccc(B(O)O)cc2CSC(=N)N)c1 [compound 1069] | 4156 | 229 |  |  |  |  |  |  |
| Br.CC(C)c1ccc(NC(=N)NC(=N)N)c(Br)c1 [compound 931] |  |  |  |  |  |  | 7.7 | 0.8 |
| COc1cccc(Oc2ccc(B3OC(C)(C)C(C)(C)O3)cc2CSC(=N)N)c1 [compound 1058] | 666 | 97 |  |  |  |  |  |  |
| CC(C)Cc1ccc(Oc2ccc(B3OC(C)(C)C(C)(C)O3)cc2CSC(=N)N)cc1 [compound 1059] | 1959 | 285 |  |  |  |  |  |  |
| N=C(N)SCc1cccc([N+](=O)[O-])c1 [compound 896] | 295 | 2 | 4 | 4 | 2 | 3 |  |  |
| CC1(C)OB(c2ccccc2CSC(=N)N)OC1(C)C [compound 832] | 70 | 7 | 7 | 7 | 1 | 26 |  |  |
| Br.N=C(N)NC(=N)Nc1ccc(I)cc1 [compound 932] |  |  |  |  |  |  | 0 | 0.3 |
| COc1ccc(CSC(=N)N)cc1B1OC(C)(C)C(C)(C)O1 [compound 973] | 1210 | 32 | 167 | 167 | 121 | 1210 |  |  |
